Data from publication PMC11237553, “De novo synthetic antimicrobial peptide design with a recurrent neural network” (Protein Science : A Publication of the Protein Society, 2024).

Test system: Escherichia coli ATCC 25922
Assay: Broth microdilution antimicrobial susceptibility testing (MIC/MBC)
Assay type: cell-based
Conditions: one maximum and one minimum data point dropped; for MIC, E. coli ATCC 25922: broth microdilution (CLSI, adapted for cationic AMPs), Mueller‐Hinton Broth, 5 ± 3 × 10^5 CFU/mL, 20–24 h at 37°C, test range 128 down to 0.25 μg/mL, lowest effective concentration range in three independent experiments in duplicate; for MBC, E. coli ATCC 25922: concentration killing 99.9% of the inoculum, plated from MIC wells, 24 h at 37°C, range in three independent experiments in duplicate
Protocol: Bacteria from frozen stocks were streaked onto non‐selective Columbia blood agar with 5% sheep blood (Oxoid) and incubated for 18–24 h at 37°C. The following day, 2–4 colonies were streaked onto a new agar plate and incubated for 18–24 h at 37°C to ensure uniform colony health prior to the assay. A standardized bacterial inoculum was prepared by suspending isolated colonies in Mueller‐Hinton Broth (MHB; Sigma‐Aldrich, St. Louis, MO, USA). The suspension was adjusted to an optical density of 0.08–0.1 at 600 nm, equivalent to a 0.5 McFarland standard of approximately 1–2 × 10^8 CFU/mL (CFU: colony forming units). The inoculum was then diluted 1:250 to achieve a final concentration of 5 ± 3 × 10^5 CFU/mL. The target bacterial density was confirmed by examining the total viability counts from the final inoculum.
Candidate AMPs were purchased from and synthesized by GenScript (Piscataway, NJ, USA). These were received in lyophilized format and stored at −20°C, and were suspended in sterile ultrapure water prior to testing.

Sequence: FLPKIAGKAAKKLPKIFCKITKKC [DeNo1019]
- MIC, E. coli ATCC 25922: 16 µg/mL
- MBC, E. coli ATCC 25922: 16 µg/mL

Sequence: FLPKIFKKIAKKL [DeNo1045]
- MIC, E. coli ATCC 25922: 64 µg/mL
- MBC, E. coli ATCC 25922: 64 to 128 µg/mL

Sequence: KIFGKILKKLLKKLLKKLLKKL [DeNo1013]
- MIC, E. coli ATCC 25922: 16 µg/mL
- MBC, E. coli ATCC 25922: 16 to 32 µg/mL

Sequence: KLPSIIKAAAKALPKLF [DeNo1034]
- MIC, E. coli ATCC 25922: 16 to 32 µg/mL
- MBC, E. coli ATCC 25922: 16 to 64 µg/mL

Sequence: MLPSIAGAAAKGLPKLFCKITKKC [DeNo1038]
- MIC, E. coli ATCC 25922: 64 µg/mL
- MBC, E. coli ATCC 25922: 64 to 128 µg/mL

Sequence: RLPSIIPGIAGKLGGLLGGLLKGL [DeNo1027]
- MIC, E. coli ATCC 25922: 32 µg/mL
- MBC, E. coli ATCC 25922: 32 to 64 µg/mL

Sequence: TLPDVAKNVAKNVAKTVLDTLKCKITGKC [DeNo1020]
- MIC, E. coli ATCC 25922: 64 to 128 µg/mL
- MBC, E. coli ATCC 25922: 64 to 128 µg/mL
